# Data: patent publication US7700584B2 (Hangzhou Minsheng Pharmaceuticals Co., Ltd., priority 2004, dated 2010)
# Structures can show the parent of a compound that is named as a salt. Where two headings read alike, the source gives them in different places.
# What was measured:
# [1] = tested on: Hela human cervical carcinoma; test: In vitro inhibition rate to tumor cells (MTT), Hela; assay type: cell-based; settings: Homo sapiens, HeLa, 50 μg/ml, read-out: inhibition rate, Results (%) Hela
# [2] = tested on: mouse grafted uterine cervix cancer U14; test: Activity against mouse grafted uterine cervix cancer U14; assay type: in vivo, Kunming mice; settings: for Tumor weight: X ± SD, n = 10
# [3] = target: T1, HIV-1 integrase (HIV-1 IN) (Human immunodeficiency virus type 1 group M subtype B, UniProt P04585); test: Screening for the activity against HIV-1 integrase; assay type: biochemical; settings: initial concentration 100 μg/ml; read-out: IC50
# T1 construct: a purified HIV-1 integrase was added into each well; purchased
# In short: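 Purified HIV-1 integrase with plate-bound 30-nt donor oligonucleotide and biotinylated 20-nt target oligonucleotide; samples tested at four 5-fold serial dilutions. Strand-transfer product detected by ELISA with biotin-labeled alkaline phosphatase, read as OD450.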
# [4] = tested on: eight selected tumor cell lines; test: In vitro anti-tumor IC50, summary over the selected tumor cell lines; assay type: cell-based; settings: Hela and U-937, also U-937 and HL-60 cell lines
# Protocol: (1) Single cell suspension was seeded into 96-well plates (the cells was diluted in the PRMI-1640 minimum medium to 3×10^4 cells/ml, […] diluted cells/well). […] The experiments were performed in quadruplicate.
# (2) The medium was removed. Solutions of the anti-tumor agents (50 compounds) were prepared in a freshly prepared medium at serial concentrations. […] of the solution was added into each well. Incubation was continued for 48 hours.
# (3) 20 ug of 2 mg/ml MTT was added into each well, and incubated for 4 hours.
# (4) The medium was removed from the well. The microplates were swiftly turned down to throw-off the medium. […] of DMSO was added into each well, and vortexed at room temperature for 10 minutes.
# (5) OD value (λ=570 nm) was measured with an Enzyme-Linked Detector.
# (6) The graph of cell vitality was plotted, and IC50 was calculated.
# [5] = U14, first experiment, 10 mg/kg
# [6] = U14, first experiment, 20 mg/kg
# [7] = U14, first experiment, 40 mg/kg
# [8] = U14, second experiment, 10 mg/kg
# [9] = U14, second experiment, 20 mg/kg
# [10] = U14, second experiment, 40 mg/kg
# [11] = U14, third experiment, 10 mg/kg
# [12] = U14, third experiment, 20 mg/kg
# [13] = U14, third experiment, 40 mg/kg
compound,measurement,setting,value
"CC(C)C1CC23OC1(O)CC(=CN1CCNCC1)C2CCC3C (centres unmarked) [Compound 8, Curcumol piperazine hydrochloride]",inhibition at 50 µg/mL,[1]; Table 1,91.9%
same,inhibition at 50 µg/mL,[1]; Table 2 (repeated screening),92%
same,inhibition at 50 µg/mL,[1]; Table 3 (repeated screening),91.5%
same,Inhibition rate (%),[2]; [5],35.6%
same,Tumor weight,[2]; [5],2.26 ± 0.33 g
same,Inhibition rate (%),[2]; [6],54.4%
same,Tumor weight,[2]; [6],1.60 ± 0.39 g
same,Inhibition rate (%),[2]; [7],67.2%
same,Tumor weight,[2]; [7],1.15 ± 0.36 g
same,Inhibition rate (%),[2]; [8],38.8%
same,Tumor weight,[2]; [8],2.08 ± 0.33 g
same,Inhibition rate (%),[2]; [9],55.6%
same,Tumor weight,[2]; [9],1.51 ± 0.39 g
same,Inhibition rate (%),[2]; [10],64.7%
same,Tumor weight,[2]; [10],1.20 ± 0.36 g
same,Inhibition rate (%),[2]; [11],40.1%
same,Tumor weight,[2]; [11],2.14 ± 0.33 g
same,Inhibition rate (%),[2]; [12],54.4%
same,Tumor weight,[2]; [12],1.65 ± 0.39 g
same,Inhibition rate (%),[2]; [13],65.5%
same,Tumor weight,[2]; [13],1.25 ± 0.36 g
same,inhibitory effect against mouse grafted uterine cervix cancer U14 (in words),"[2]; all the three concentrations, i.v., female mice",good inhibitory effect
same,inhibition rate against mouse grafted uterine cervix cancer U14,[2]; concentration above 40 mg/kg,above 60%
same,Average weight (g)-after administration,"[2]; mouse, in vivo, 10 mg/kg",21.5 g
same,Average weight (g)-after administration,"[2]; mouse, in vivo, 20 mg/kg",21.9 g
same,Average weight(g)-after administration,"[2]; mouse, in vivo, 20 mg/kg",20.9 g
same,Average weight (g)-after administration,"[2]; mouse, in vivo, 40 mg/kg",21.3 g
same,inhibition at 100 µg/mL,[3],< 50%
same,"activity to Hela, U-937 and HL-60 cell lines (in words)",[4],excellent activity
